The results in this text go back to ChEMBL document CHEMBL3822442, “Synthesis and Pharmacological Characterization of Novel Glucagon-like Peptide-2 (GLP-2) Analogues with Low Systemic Clearance” (J Med Chem, 2016).

Usually EC50 stands for the concentration needed to bring the measured effect to its halfway point. High values mean a less potent agent, low ones a more potent agent. A word on the clearance: it is the rate of elimination divided by the concentration. A high value points to efficient removal.

Calls of active or inactive are those of the source. The rule behind the calls is not given here. Non-standard residues stand in square brackets, D forms with d. Residues, ends and D or L forms follow the SMILES beside them. ξ: configuration not given here. ξNle = CCCCC(N)C(=O)O Where only a bound is given, the exact number is not on record here.

A short description of data set [1]: Protein binding in rat plasma at 200 to 1000 ng/ml incubated for 15 mins by LC/MS/MS based ultracentrifugation method. The data set is classed as ADME, cell-free. The conditions noted are these: read-out: PPB (converted).
For data set [2], the target named is Glucagon-like peptide 1 receptor (Homo sapiens, UniProt P43220). In words: Agonist activity at human GLP1R expressed in HEK293 cells after 5 hrs by luciferase reporter gene assay. In kind it is cell-based.
Glucagon-like peptide 1 receptor, sequence (P43220 whole entry): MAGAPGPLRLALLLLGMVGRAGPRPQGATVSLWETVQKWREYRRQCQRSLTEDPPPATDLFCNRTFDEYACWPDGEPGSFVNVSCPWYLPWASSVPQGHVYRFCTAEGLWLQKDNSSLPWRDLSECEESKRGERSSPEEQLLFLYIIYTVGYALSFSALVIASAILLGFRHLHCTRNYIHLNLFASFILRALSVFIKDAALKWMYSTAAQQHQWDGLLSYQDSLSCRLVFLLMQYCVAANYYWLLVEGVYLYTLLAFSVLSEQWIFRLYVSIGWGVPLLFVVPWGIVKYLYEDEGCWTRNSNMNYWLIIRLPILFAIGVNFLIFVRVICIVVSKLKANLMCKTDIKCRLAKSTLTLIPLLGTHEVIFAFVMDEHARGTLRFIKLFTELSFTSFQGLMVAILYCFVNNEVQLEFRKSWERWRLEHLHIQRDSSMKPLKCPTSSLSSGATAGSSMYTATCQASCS
The target in data set [3] is T1, Glucagon-like peptide 2 receptor (Homo sapiens, UniProt O95838).
T1 sequence (O95838 whole entry): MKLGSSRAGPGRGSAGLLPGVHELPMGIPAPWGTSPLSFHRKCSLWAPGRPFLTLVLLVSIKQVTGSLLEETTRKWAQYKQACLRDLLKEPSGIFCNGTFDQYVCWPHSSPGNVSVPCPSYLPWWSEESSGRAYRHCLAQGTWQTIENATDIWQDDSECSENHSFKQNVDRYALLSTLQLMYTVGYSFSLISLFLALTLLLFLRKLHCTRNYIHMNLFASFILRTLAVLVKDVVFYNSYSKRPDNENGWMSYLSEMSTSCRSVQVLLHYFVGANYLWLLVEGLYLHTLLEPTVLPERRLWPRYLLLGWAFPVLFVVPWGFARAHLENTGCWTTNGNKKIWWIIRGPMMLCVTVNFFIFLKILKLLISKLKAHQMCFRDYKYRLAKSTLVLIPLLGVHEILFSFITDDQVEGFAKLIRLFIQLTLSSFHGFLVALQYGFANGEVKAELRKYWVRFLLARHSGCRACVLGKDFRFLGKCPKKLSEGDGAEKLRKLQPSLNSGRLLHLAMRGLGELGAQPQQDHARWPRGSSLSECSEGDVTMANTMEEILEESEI
In words: Agonist activity at human GLP2R expressed in HEK293 cells after 5 hrs by luciferase reporter gene assay. The data set is classed as cell-based.

Data set [4] is described as follows: Systemic clearance in Sprague-Dawley rat at 0.2 mg/kg, iv through cassette dosing measured up to 300 mins by LC/MS/MS analysis. The data set is classed as ADME, organism-based. The conditions noted are these: in vivo.
Data set [5] addresses Glucagon receptor (Homo sapiens) (UniProt P47871). In words: Agonist activity at human GCGR expressed in HEK293 cells up to 1000 nM after 5 hrs by luciferase reporter gene assay. In kind it is cell-based. Background: A reporter such as luciferase makes a cellular process visible.
Another data set concerns HEK293. In words: Selectivity ratio of EC50 for human GLP1R expressed in HEK293 cells to EC50 for human GLP2R expressed in HEK293. In kind it is cell-based.
The test system of another data set is Rattus norvegicus. In words: Intestinotrophic activity in Sprague-Dawley rat assessed as increase in intestinal growth at 1000 nmol/kg, sc once daily through bolus administration for 5 days relative to control. In kind it is functional.
The target in data set [6] is T2, Glucagon-like peptide 2 receptor (Rattus norvegicus, UniProt Q9Z0W0).
T2 sequence (Q9Z0W0 whole entry): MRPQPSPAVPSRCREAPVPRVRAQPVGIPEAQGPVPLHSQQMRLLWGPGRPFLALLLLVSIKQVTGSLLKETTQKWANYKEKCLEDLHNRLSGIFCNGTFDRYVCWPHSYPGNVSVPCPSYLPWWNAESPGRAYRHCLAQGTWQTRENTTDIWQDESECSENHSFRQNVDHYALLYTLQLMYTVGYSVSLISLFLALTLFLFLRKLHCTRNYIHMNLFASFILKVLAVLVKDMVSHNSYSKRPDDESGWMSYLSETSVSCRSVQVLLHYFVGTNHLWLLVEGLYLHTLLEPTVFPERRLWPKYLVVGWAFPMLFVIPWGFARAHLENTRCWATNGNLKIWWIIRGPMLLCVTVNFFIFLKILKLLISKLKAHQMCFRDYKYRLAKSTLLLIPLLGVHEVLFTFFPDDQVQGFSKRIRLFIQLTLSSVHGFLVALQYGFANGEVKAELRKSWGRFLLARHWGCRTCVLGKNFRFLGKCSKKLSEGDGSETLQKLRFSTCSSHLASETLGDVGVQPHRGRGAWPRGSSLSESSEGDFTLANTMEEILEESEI
In words: Agonist activity at rat GLP2R expressed in HEK293 cells after 5 hrs by luciferase reporter gene assay. In kind it is cell-based.

Glucagon receptor (Homo sapiens), sequence (P47871 whole entry): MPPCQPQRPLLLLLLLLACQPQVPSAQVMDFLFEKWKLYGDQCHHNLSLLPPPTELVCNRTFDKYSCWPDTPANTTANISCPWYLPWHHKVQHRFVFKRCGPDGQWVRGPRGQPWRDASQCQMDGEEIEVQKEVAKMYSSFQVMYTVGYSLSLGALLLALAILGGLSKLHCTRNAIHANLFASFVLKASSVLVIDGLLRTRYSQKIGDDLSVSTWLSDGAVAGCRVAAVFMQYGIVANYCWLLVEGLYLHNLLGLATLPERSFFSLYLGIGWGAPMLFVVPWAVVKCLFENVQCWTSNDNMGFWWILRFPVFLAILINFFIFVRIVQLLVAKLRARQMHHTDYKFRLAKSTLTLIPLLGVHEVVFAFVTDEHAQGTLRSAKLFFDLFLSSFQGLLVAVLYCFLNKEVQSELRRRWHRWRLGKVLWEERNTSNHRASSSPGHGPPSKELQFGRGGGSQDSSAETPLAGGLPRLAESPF

On to `CCCC[C@H](NC(=O)[C@H](CCC(=O)O)NC(=O)[C@H](CC(=O)O)NC(=O)[C@H](CO)NC(=O)[C@H](Cc1ccccc1)NC(=O)[C@H](CO)NC(=O)CNC(=O)[C@H](CC(=O)O)NC(=O)CNC(=O)[C@@H](N)Cc1cnc[nH]1)C(=O)N[C@H](Cc1ccccc1)C(=O)N[C@H](C(=O)N[C@H](C(=O)N[C@@H](CC(C)C)C(=O)N[C@@H](CC(=O)O)C(=O)N[C@@H](CC(C)C)C(=O)N[C@@H](CC(C)C)C(=O)N[C@@H](C)C(=O)N[C@@H](C)C(=O)N[C@@H](CCCNC(=N)N)C(=O)N[C@@H](CC(=O)O)C(=O)N[C@@H](Cc1ccccc1)C(=O)N[C@H](C(=O)N[C@@H](CC(N)=O)C(=O)N[C@@H](Cc1c[nH]c2ccccc12)C(=O)N[C@@H](CC(C)C)C(=O)N[C@H](C(=O)N[C@@H](CCC(N)=O)C(=O)N[C@H](C(=O)N[C@@H](CCCCN)C(=O)N[C@H](C(=O)N[C@H](C(=O)N[C@@H](CC(=O)O)C(=O)O)[C@@H](C)O)[C@@H](C)CC)[C@@H](C)O)[C@@H](C)CC)[C@@H](C)CC)[C@@H](C)CC)[C@@H](C)O`, for which, in data set [1], the fraction unbound at 0.25 h was 0.005. Moreover, the EC50 in data set [2] was greater than 1000 nM; in data set [3], 0.03 nM. The same molecule displayed a clearance in data set [4] of 0.28 mL/min/kg.
On to `CCCCC(NC(=O)[C@H](CCC(=O)O)NC(=O)[C@H](CC(=O)O)NC(=O)[C@H](CO)NC(=O)[C@H](Cc1ccccc1)NC(=O)[C@H](CO)NC(=O)CNC(=O)[C@H](CC(=O)O)NC(=O)CNC(=O)[C@@H](N)Cc1cnc[nH]1)C(=O)N[C@@H](CC(N)=O)C(=O)N[C@H](C(=O)N[C@H](C(=O)N[C@@H](CC(C)C)C(=O)N[C@@H](CC(=O)O)C(=O)N[C@@H](CC(C)C)C(=O)N[C@@H](CC(C)C)C(=O)N[C@@H](C)C(=O)N[C@@H](C)C(=O)N[C@@H](CCCNC(=N)N)C(=O)N[C@@H](CC(=O)O)C(=O)N[C@@H](Cc1ccccc1)C(=O)N[C@H](C(=O)N[C@@H](CC(N)=O)C(=O)N[C@@H](Cc1c[nH]c2ccccc12)C(=O)N[C@@H](CC(C)C)C(=O)N[C@H](C(=O)N[C@@H](CCC(N)=O)C(=O)N[C@H](C(=O)N[C@@H](CCCCN)C(N)=O)[C@@H](C)O)[C@@H](C)CC)[C@@H](C)CC)[C@@H](C)CC)[C@@H](C)O` (stereo partly drawn) (H-HGDGSFSDE[ξNle]NTILDLLAARDFINWLIQTK-NH2), for which the outcome in data set [5] was inactive. Moreover, the fraction unbound at 0.25 h in data set [1] was 0.013. Further, the EC50 in data set [2] was greater than 1000 nM; in data set [3], 0.1 nM. Besides, the Ratio EC50 with HEK293 is greater than 10000. The clearance in data set [4] came to 0.84 mL/min/kg.
As for `CCCC[C@H](NC(=O)[C@H](CCC(=O)O)NC(=O)[C@H](CC(=O)O)NC(=O)[C@H](CO)NC(=O)[C@H](Cc1ccccc1)NC(=O)[C@H](CO)NC(=O)CNC(=O)[C@H](CC(=O)O)NC(=O)CNC(=O)[C@@H](N)Cc1cnc[nH]1)C(=O)N[C@H](Cc1ccccc1)C(=O)N[C@H](C(=O)N[C@H](C(=O)N[C@@H](CC(C)C)C(=O)N[C@@H](CC(=O)O)C(=O)N[C@@H](CC(C)C)C(=O)N[C@@H](CC(C)C)C(=O)N[C@@H](C)C(=O)N[C@@H](C)C(=O)N[C@@H](CCCNC(=N)N)C(=O)N[C@@H](CC(=O)O)C(=O)N[C@@H](Cc1ccccc1)C(=O)N[C@H](C(=O)N[C@@H](CC(N)=O)C(=O)N[C@@H](Cc1c[nH]c2ccccc12)C(=O)N[C@@H](CC(C)C)C(=O)N[C@H](C(=O)N[C@@H](CCC(N)=O)C(=O)N[C@H](C(=O)N[C@@H](CCCCN)C(=O)N[C@H](C(=O)N[C@H](C(=O)N[C@@H](CC(=O)O)C(N)=O)[C@@H](C)O)[C@@H](C)CC)[C@@H](C)O)[C@@H](C)CC)[C@@H](C)CC)[C@@H](C)CC)[C@@H](C)O` [listing 1 of 2 here], the Activity with Rattus norvegicus came out at 61.2%.
On to `CCCC[C@H](NC(=O)[C@H](CCC(=O)O)NC(=O)[C@H](CC(=O)O)NC(=O)[C@H](CO)NC(=O)[C@H](Cc1ccccc1)NC(=O)[C@H](CO)NC(=O)CNC(=O)[C@H](CC(=O)O)NC(=O)CNC(=O)[C@@H](N)Cc1cnc[nH]1)C(=O)N[C@H](Cc1ccccc1)C(=O)N[C@H](C(=O)N[C@H](C(=O)N[C@@H](CC(C)C)C(=O)N[C@@H](CC(=O)O)C(=O)N[C@@H](CC(C)C)C(=O)N[C@@H](CC(C)C)C(=O)N[C@@H](C)C(=O)N[C@@H](C)C(=O)N[C@@H](CCCNC(=N)N)C(=O)N[C@@H](CC(=O)O)C(=O)N[C@@H](Cc1ccccc1)C(=O)N[C@H](C(=O)N[C@@H](CC(N)=O)C(=O)N[C@@H](Cc1c[nH]c2ccccc12)C(=O)N[C@@H](CC(C)C)C(=O)N[C@H](C(=O)N[C@@H](CCC(N)=O)C(=O)N[C@H](C(=O)N[C@@H](CCCCN)C(=O)N[C@H](C(=O)N[C@H](C(=O)N[C@@H](CC(=O)O)C(N)=O)[C@@H](C)O)[C@@H](C)CC)[C@@H](C)O)[C@@H](C)CC)[C@@H](C)CC)[C@@H](C)CC)[C@@H](C)O` [listing 2 of 2 here], for which, in data set [1], the fraction unbound at 0.25 h is 0.008. Further, the EC50 in data set [2] is greater than 1000 nM; in data set [6], 0.04 nM; in data set [3], 0.03 nM.
Take `CCCCC(NC(=O)[C@H](CCC(=O)O)NC(=O)[C@H](CC(=O)O)NC(=O)[C@H](CO)NC(=O)[C@H](Cc1ccccc1)NC(=O)[C@H](CO)NC(=O)CNC(=O)[C@H](CC(=O)O)NC(=O)CNC(=O)[C@@H](N)Cc1cnc[nH]1)C(=O)N[C@H](Cc1ccccc1)C(=O)N[C@H](C(=O)N[C@H](C(=O)N[C@@H](CC(C)C)C(=O)N[C@@H](CC(=O)O)C(=O)N[C@@H](CC(C)C)C(=O)N[C@@H](CC(C)C)C(=O)N[C@@H](C)C(=O)N[C@@H](C)C(=O)N[C@@H](CCCNC(=N)N)C(=O)N[C@@H](CC(=O)O)C(=O)N[C@@H](Cc1ccccc1)C(=O)N[C@H](C(=O)N[C@@H](CC(N)=O)C(=O)N[C@@H](Cc1c[nH]c2ccccc12)C(=O)N[C@@H](CC(C)C)C(=O)N[C@H](C(=O)N[C@@H](CCC(N)=O)C(=O)N[C@H](C(=O)N[C@@H](CCCCN)C(=O)N[C@H](C(=O)N[C@H](C(=O)N[C@@H](CC(=O)O)C(=O)NCC(C)C)[C@@H](C)O)[C@@H](C)CC)[C@@H](C)O)[C@@H](C)CC)[C@@H](C)CC)[C@@H](C)CC)[C@@H](C)O` (stereo partly drawn): in data set [1], the fraction unbound at 0.25 h is 0.016. Moreover, the values for the EC50 in data set [2] and in data set [3] were greater than 1000 nM and 0.06 nM, respectively. In addition, the Ratio EC50 in the data set on HEK293 was greater than 16000. This molecule also had a clearance in data set [4] of 0.17 mL/min/kg.
For the molecule `CC[C@H](C)[C@H](NC(=O)[C@H](Cc1ccccc1)NC(=O)[C@H](CC(=O)O)NC(=O)[C@H](CCCN=C(N)N)NC(=O)[C@H](C)NC(=O)[C@H](C)NC(=O)[C@H](CC(C)C)NC(=O)[C@H](CC(N)=O)NC(=O)[C@H](CC(=O)O)NC(=O)[C@H](CC(C)C)NC(=O)[C@@H](NC(=O)[C@@H](NC(=O)[C@H](CC(N)=O)NC(=O)[C@H](CCSC)NC(=O)[C@H](CCC(=O)O)NC(=O)[C@H](CC(=O)O)NC(=O)[C@H](CO)NC(=O)[C@H](Cc1ccccc1)NC(=O)[C@H](CO)NC(=O)CNC(=O)[C@H](CC(=O)O)NC(=O)[C@H](C)NC(=O)[C@@H](N)Cc1cnc[nH]1)[C@@H](C)O)[C@@H](C)CC)C(=O)N[C@@H](CC(N)=O)C(=O)N[C@@H](Cc1c[nH]c2ccccc12)C(=O)N[C@@H](CC(C)C)C(=O)N[C@H](C(=O)N[C@@H](CCC(N)=O)C(=O)N[C@H](C(=O)N[C@@H](CCCCN)C(=O)N[C@H](C(=O)N[C@H](C(=O)N[C@@H](CC(=O)O)C(=O)O)[C@@H](C)O)[C@@H](C)CC)[C@@H](C)O)[C@@H](C)CC`, the fraction unbound at 0.25 h in data set [1] is 0.338. Moreover, a half-maximal effect in data set [2] (EC50) was put at 520 nM. The same molecule displayed a clearance in data set [4] of 25 mL/min/kg.
